Experimental data published in the supplement of paper PMC6045584.
± gives the standard deviation of the averaged measurements.

Experiments:
[1] = compound: COc1cc2ncnc(Nc3ccc(F)c(Cl)c3)c2cc1NC(=O)/C=C/CN1CCCCC1; experiment: surviving fraction relative to DMSO-only wells; higher = less growth inhibition; details: exposure time: 5 days
In short: (§1)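 A line counted only if its three screens reached replicate Pearson r >0.7 and median Z' >0.3. Tumour cells in log phase were seeded at 250–500 per well in 384-well plates and, after 24 hours, kept in continuous contact with inhibitors at 0.5, 1, 5, 10, 50, 100, 500 and 1000 nM for five days. Surviving fraction was taken from CellTiter-Glo luminescence relative to the median of DMSO-only wells.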

DASATINIB = compound: Cc1nc(Nc2ncc(C(=O)Nc3c(C)cccc3Cl)s2)cc(N2CCN(CCO)CC2)n1 [DASATINIB]; experiment: as above; details: exposure time: 5 days
In short: as §1

| Test System | surviving fraction ([1]; 0.5 nM) | surviving fraction ([1]; 1 nM) | surviving fraction ([1]; 5 nM) | surviving fraction ([1]; 10 nM) | surviving fraction ([1]; 50 nM) | surviving fraction ([1]; 100 nM) | surviving fraction ([1]; 500 nM) | surviving fraction ([1]; 1000 nM) | surviving fraction (DASATINIB; 0.5 nM) | surviving fraction (DASATINIB; 1 nM) | surviving fraction (DASATINIB; 5 nM) | surviving fraction (DASATINIB; 10 nM) | surviving fraction (DASATINIB; 50 nM) | surviving fraction (DASATINIB; 100 nM) | surviving fraction (DASATINIB; 500 nM) | surviving fraction (DASATINIB; 1000 nM) |
| --- | --- | --- | --- | --- | --- | --- | --- | --- | --- | --- | --- | --- | --- | --- | --- | --- |
| CAL72 BONE | 1.08 ± 0.014 | 1.06 ± 0.042 | 1.08 ± 0.062 | 1.03 ± 0.024 | 1.06 ± 0.055 | 1.07 ± 0.034 | 0.943 ± 0.019 | 0.818 ± 0.017 | 1.01 ± 0.048 | 1.01 ± 0.041 | 0.862 ± 0.16 | 0.618 ± 0.25 | 0.269 ± 0.12 | 0.233 ± 0.12 | 0.226 ± 0.12 | 0.221 ± 0.12 |
| CAL120 BREAST | 0.98 ± 0.016 | 0.952 ± 0.014 | 0.965 ± 0.021 | 0.973 ± 0.038 | 0.959 ± 0.022 | 0.961 ± 0.04 | 0.837 ± 0.025 | 0.543 ± 0.019 | 0.877 ± 0.098 | 0.882 ± 0.025 | 0.861 ± 0.013 | 0.786 ± 0.062 | 0.497 ± 0.022 | 0.358 ± 0.021 | 0.217 ± 0.0088 | 0.192 ± 0.015 |
| CASKI CERVIX | 0.801 ± 0.054 | 0.762 ± 0.015 | 0.468 ± 0.0036 | 0.336 ± 0.024 | 0.285 ± 0.025 | 0.2623 ± 0.0023 | 0.0627 ± 0.013 | 0.024 ± 0.002 | 0.732 ± 0.045 | 0.777 ± 0.052 | 0.69 ± 0.024 | 0.474 ± 0.03 | 0.121 ± 0.0042 | 0.0747 ± 0.0047 | 0.0433 ± 0.0023 | 0.0293 ± 0.00058 |
| CHLA90 AUTONOMIC GANGLIA | 1 ± 0.048 | 0.982 ± 0.085 | 0.853 ± 0.049 | 0.834 ± 0.016 | 0.818 ± 0.023 | 0.769 ± 0.048 | 0.781 ± 0.04 | 0.596 ± 0.022 | 0.801 ± 0.031 | 0.804 ± 0.059 | 0.737 ± 0.054 | 0.712 ± 0.025 | 0.735 ± 0.11 | 0.656 ± 0.091 | 0.711 ± 0.044 | 0.728 ± 0.026 |
| CME SYNOVIAL | 1.2 ± 0.09 | 1.4 ± 0.17 | 1.29 ± 0.12 | 1.39 ± 0.15 | 1.42 ± 0.18 | 1.37 ± 0.11 | 1.26 ± 0.098 | 1.27 ± 0.12 | 0.831 ± 0.15 | 0.827 ± 0.1 | 0.752 ± 0.088 | 0.713 ± 0.1 | 0.598 ± 0.028 | 0.464 ± 0.042 | 0.411 ± 0.075 | 0.383 ± 0.036 |
| COLO320DM LARGE INTESTINE | 1.04 ± 0.011 | 1.15 ± 0.067 | 1.07 ± 0.015 | 1.07 ± 0.068 | 1.12 ± 0.076 | 1.07 ± 0.055 | 0.685 ± 0.03 | 0.377 ± 0.025 | 1.12 ± 0.096 | 1.01 ± 0.051 | 1.08 ± 0.074 | 1.1 ± 0.034 | 1.03 ± 0.028 | 1.02 ± 0.056 | 1.09 ± 0.045 | 1.09 ± 0.089 |
| DU4475 BREAST | 0.798 ± 0.057 | 0.876 ± 0.044 | 0.901 ± 0.12 | 0.987 ± 0.21 | 0.908 ± 0.14 | 1.09 ± 0.14 | 1.14 ± 0.19 | 0.985 ± 0.054 | 0.824 ± 0.17 | 0.828 ± 0.09 | 0.802 ± 0.1 | 0.689 ± 0.21 | 0.658 ± 0.031 | 0.748 ± 0.15 | 0.669 ± 0.2 | 0.514 ± 0.083 |
| H23 LUNG | 0.91 ± 0.056 | 0.744 ± 0.035 | 0.468 ± 0.015 | 0.414 ± 0.026 | 0.381 ± 0.013 | 0.38 ± 0.018 | 0.332 ± 0.023 | 0.292 ± 0.023 | 0.924 ± 0.025 | 0.902 ± 0.065 | 0.823 ± 0.064 | 0.783 ± 0.052 | 0.597 ± 0.051 | 0.511 ± 0.067 | 0.288 ± 0.0063 | 0.256 ± 0.013 |
| HCC78 LUNG | 0.902 ± 0.2 | 0.733 ± 0.13 | 0.87 ± 0.051 | 0.827 ± 0.21 | 0.749 ± 0.12 | 0.857 ± 0.086 | 0.595 ± 0.23 | 0.447 ± 0.02 | 0.662 ± 0.064 | 0.783 ± 0.025 | 0.849 ± 0.084 | 0.914 ± 0.068 | 0.569 ± 0.15 | 0.235 ± 0.019 | 0.175 ± 0.056 | 0.176 ± 0.045 |
| HCC202 BREAST | 1.1 ± 0.1 | 1.06 ± 0.15 | 0.723 ± 0.13 | 0.757 ± 0.14 | 0.373 ± 0.041 | 0.297 ± 0.067 | 0.131 ± 0.026 | 0.0933 ± 0.023 | 0.999 ± 0.37 | 1.23 ± 0.21 | 0.816 ± 0.2 | 0.907 ± 0.31 | 0.697 ± 0.21 | 0.722 ± 0.042 | 0.509 ± 0.019 | 0.505 ± 0.21 |
